How the values were obtained:
[1] = system: aneurysm induced by porcine pancreatic elastase in C57BL/6 mice; test: Aneurysm model induced by porcine pancreatic elastase (PPE model); format: in vivo, mouse; settings: for diameter of aneurysms: 20 mg/kg intraperitoneal injection from Day 5 for 10 days
Procedure: (§1) The mouse was anesthetized by intraperitoneal injection of 1% pentobarbital sodium at the dose of 20 mg/kg. After the mouse entering anesthesia state, the abdominal hair was shaved off with a razor and further thoroughly depilated with depilatory cream. The abdomen was dried and the mouse was fixed on the operating table. Its body temperature was kept with a heating pad under the body. The abdominal skin was wiped with iodine and deiodined with 75% ethanol. An incision of about 1.5 cm was cut in the middle of the abdomen. The organs were carefully pushed away with tweezers. Then the intestine was divided to the left and right sides with gauze wetted with 3% penicillin-streptomycin. The connective tissue and muscle tissue on the surface of the aorta were carefully separated with tweezers to fully expose the abdominal aorta.
(§2) Sterilized absorbent paper (0.3 cm×0.3 cm) was fully infiltrated in porcine pancreatic elastase (PPE), and then applied on the exposed abdominal aorta for 50 minutes. A gauze wetted with normal saline containing 3% penicillin-streptomycin was placed on the abdominal incision to prevent the abdominal water from excessive loss. After 50 minutes, the absorbent paper on the aorta was carefully taken away. The abdominal cavity was rinsed with normal saline containing 3% penicillin-streptomycin. The peritoneum and skin were sutured with ⅜ suture needle and 5/0 suture line. After suturing, the wound was wiped with iodine and deiodined with 75% ethanol after 1 min. The mouse was placed into a clean feeding cage and can eat and drink freely.
(§3) Sample Fixation, Dehydration, Paraffin Embedding and Slicing 100 ml of formaldehyde, 4 g of sodium dihydrogen phosphate and 6.5 g of disodium hydrogen phosphate were dissolved in 900 ml of distilled water to prepare a polyoxymethylene fixed solution with a volume ratio of 10%. The aortic tissue was fixed in polyoxymethylene fixation solution for 72 hours, then washed with tap water for 4-6 hrs and placed in the dehydrator. The program was set for automatic dehydration, with 75% ethanol for 1.5 hours, 95% ethanol for 1.5 hours, 100% ethanol for 1.5 hours, dimethylbenzene for 1.5 hours and paraffin for 1.5 hours, successively. The paraffin embedding machine was opened 2 hours in advance to melt paraffin, and the temperature was controlled at 60° C. After the paraffin was melted, the dehydrated aortic tissue was embedded in paraffin. It was poured into the embedding box, and the paraffin soaked tissue block was placed into the embedding frame using heated tweezers and gently moved to the cold table. The paraffin block was taken off for slicing after the paraffin was solidified. Before slicing, the paraffin block was put into refrigerator for pre-cooling. After cooling, the paraffin block was cut into continuous 5 μM-thick paraffin sections using the slicer. The sections were unfolded on warm water at 38° C. in a slide spreader, fished with slides coated with APES, and dried naturally for subsequent histopathological staining.
The tissue was fixed, embedded and cut into 4 μM paraffin sections. […]

[2] = system: aneurysms, intramural hematomas and arterial dissections induced by porcine pancreatic elastase and 1% β-aminopropionitrile in C57BL/6 mice; test: Aneurysm, intramural hematoma and arterial dissection model induced by porcine pancreatic elastase and 1% β-aminopropionitrile (PPE+BAPN model); format: in vivo, mouse; settings: for histological analysis of the vessel wall: Day 15
Procedure: as §1
as §2, with “away. And the” for “away. The”, “feeding cage, fed with 1% β-aminopropionitrile (BAPN) feed” for “feeding cage”, “freely. The feed was changed every other day.” for “freely.”
as §3
The tissue was fixed, embedded and cut into 4 μM paraffin sections. The paraffin sections were firstly baked (65° C., 60 minutes), and then dewaxed to aqueous phase (dimethylbenzene for 15 minutes→absolute ethanol for 5 minutes→95% ethanol for 5 minutes→75% ethanol for 5 minutes→running water for 1 minute); stained with hematoxylin for 15 minutes and then rinsed with running water for 4 minutes; differentiated with 1% ethanol hydrochloride for 5 seconds (the differentiation time was adjusted according to the preparation time of differentiation solution) and rinsed with running water for 5 minutes; then stained with eosin for 1 minute and placed in water for 1 minute; dehydrated and then permeated with dimethylbenzene (75% ethanol for 5 minutes→95% ethanol for 5 minutes→absolute ethanol for 5 minutes→dimethylbenzene for 15 minutes) and sealed with neutral gum.

[3] = evaluated Day 15, vs model control
[4] = 100 mg/kg intraperitoneal injection from Day 5 for 10 days
[5] = 100 mg/kg intraperitoneal injection from Day 5 for 10 days, evaluated Day 15
[6] = 100 mg/kg intragastric administration from Day 5 for 10 days, evaluated Day 15
[7] = 50 mg/kg orally via gavage from Day 5 for 10 days, evaluated Day 15

Molecule | histological analysis of the vessel wall [2, 4] | diameter / expansion of aneurysm (maximum blood vessel diameter of arteriopathy site) [2, 5] | occurrence of intramural hematoma and arterial dissection [2, 5] | further results
O=C(O)/C=C/c1ccc(O)c(O)c1 [Caffeic acid] | – | – | – | diameter of aneurysms [1, 3]: significantly reduced the diameter and expansion of aneurysm in mouse (P<0.01)
Cc1ccc(C(C)C)cc1O [Carvacrol] | reduced the thickness of vessel wall and protected the integrity of vessel structure | significantly reduced the diameter of infrarenal aneurysm in mouse (P<0.001) | reduced the occurrence of infrarenal aneurysm, intramural hematoma and arterial dissection in mouse | –
O=c1ccc2ccccc2o1 [Coumarin] | – | – | – | diameter of infrarenal aneurysm [2, 6]: significantly reduced the diameter of infrarenal aneurysm in mouse
O=C(O)[C@H](O)Cc1ccc(O)c(O)c1 [Danshensu] | – | – | – | diameter of aneurysms [1, 3]: significantly reduced the diameter and expansion of aneurysm (P<0.01)
C=CCc1ccc(O)c(OC)c1 [Eugenol] | – | significantly reduced the diameter of infrarenal aneurysm in mouse (P<0.01) | reducing the occurrence of infrarenal artery intramural hematoma and arterial dissection and the arterial rupture in mouse | diameter of infrarenal aneurysm [2, 6]: significantly reduced the diameter of infrarenal aneurysm in mouse (P<0.001); occurrence of infrarenal artery intramural hematoma and arterial dissection [2, 6]: reducing the occurrence of infrarenal artery intramural hematoma and arterial dissection in mouse
COc1cc(/C=C/C(=O)O)ccc1O [Ferulic acid] | protected the integrity of vessel structure, inhibited the degradation of elastic layer, inhibited the occurrence of intramural hematoma | significantly reduced the expansion of aneurysm in mouse (P<0.001) | significantly reduced the occurrence of intramural hematoma and arterial dissection, and the arterial rupture in mouse | diameter of aneurysms [1, 3]: significantly reduce the diameter of aneurysms in mouse (P<0.001)
COC(=O)[C@@H](Cc1ccc(O)c(O)c1)OC(=O)/C=C/c1ccc(O)c(O)c1 [Methyl rosmarinate] | reduced the thickness of vessel wall and protected the integrity of vessel structure | – | significantly reduced the occurrence of infrarenal aneurism, intramural hematoma and arterial dissection in mouse | –
COc1ccc(C(C)=O)c(O)c1 [Paeonol] | reduced the thickness of vessel wall and protected the integrity of vessel structure | significantly reduced the diameter of infrarenal aneurysm in mouse (P<0.001) | reduced the occurrence of infrarenal artery intramural hematoma and arterial dissection in mouse | –
O=C(/C=C/c1ccc(O)c(O)c1)OCCc1ccccc1 [Phenethyl caffeate] | reduced the thickness of vessel wall and protected the integrity of vessel structure | significantly reduced the diameter of artery expansion in mouse (P<0.01) | significantly reduced the occurrence of intramural hematoma and arterial dissection, and the arterial rupture in mouse | diameter of infrarenal aneurysms ([1]; 100 mg/kg orally via gavage from Day 5 for 10 days, evaluated Day 15, vs model control): significantly reduced the diameter of infrarenal aneurysms in mouse (P<0.001)
COc1cc(/C=C/C(=O)O)ccc1O [Piperazine ferulate, reference compound] | – | – | – | histological analysis of the vessel wall ([2]; 50 mg/kg orally via gavage from Day 5 for 10 days): reduced the thickness of vessel wall and protected the integrity of vessel structure; expansion of arteries (maximum blood vessel diameter) [2, 7]: significantly reduced the expansion of arteries in mouse (P<0.001); occurrence of aneurysm, intramural hematoma and arterial dissection [2, 7]: significantly reduced the occurrence of aneurysm, intramural hematoma and arterial dissection
COc1cc2ccc(=O)oc2cc1O [Scopoletin] | – | – | – | diameter of infrarenal aneurysm [2, 6]: significantly reduced the diameter of infrarenal aneurysm in mouse
CC(C)(C)C(=O)Oc1ccc(S(=O)(=O)Nc2ccccc2C(=O)NCC(=O)[O-])cc1.[Na+] [Sivelestat sodium, reference compound] | – | – | – | PPE (protective effect) ([1]; aneurysm model induced by porcine pancreatic elastase, mouse): ineffective; PPE + BAPN (protective effect) ([2]; aneurysm model induced by porcine pancreatic elastase and 1% β-aminopropionitrile, mouse): ineffective
O=C(O)/C=C/c1ccc(O)cc1 [p-Coumaric acid] | – | – | – | diameter of infrarenal aneurysm [2, 6]: significantly reduced the diameter of infrarenal aneurysm in mouse
Aspirin eugenol ester | reduced the thickness of vessel wall and protected the integrity of vessel structure | – | significantly reduced the occurrence of infrarenal artery intramural hematoma and arterial dissection in mouse (P<0.001) | –

— patent US20220395476A1, “DRUG FOR TREATING ARTERY-RELATED DISEASES, AND USE THEREOF” (SHANGHAI INSTITUTE OF MATERIA MEDICA, CHINESE ACADEMY OF …, priority 2019, published 2022)
